The source made the active and inactive calls. No cut-off for these calls is given here.
What was measured:
HGC-27 = test: Radiosensitizing activity in human HGC-27 cells assessed as sensitization of 2 GY ionizing radiation induced decrease in cell survival by colony formation assay; format: functional, cell-based
HeLa = test: Radiosensitizing activity in human HeLa cells assessed as sensitization of 2 GY ionizing radiation induced decrease in cell survival by colony formation assay; format: functional, cell-based
[1] = Acute toxicity in Kunming mouse assessed as survival at 150 to 600 mg/kg, ip single dose measured after 7 days; format: organism-based; conditions: in vivo, 168 h, dose 150-600 mg/kg, time 7 day
[2] = AUC infinity in male Sprague-Dawley rat at 1 mg/kg, iv measured up to 24 hrs by LCMS-MS analysis; format: ADME, organism-based; conditions: in vivo
[3] = Half life in male Sprague-Dawley rat at 1 mg/kg, iv measured up to 24 hrs by LCMS-MS analysis; format: ADME, organism-based; conditions: in vivo
[4] = MRT infinity in male Sprague-Dawley rat at 5 mg/kg, IG measured up to 24 hrs by LCMS-MS analysis; format: ADME, organism-based; conditions: in vivo, po
HCT-116 [5] = test: Anti-tumor activity against human HCT-116 cells xenografted in BALB/c mouse assessed as tumor growth inhibition at 10 mg/kg, ip every day for 14 days; format: functional, organism-based; conditions: time 14.0 day
HCT-116 [6] = test: In vivo radiosensitizing activity in human HCT-116 cells xenografted in BALB/c mouse assessed as sensitization of 1 GY ionizing radiation induced reduction in tumor weight at 1 mg/kg, ip every day for 14 days radiated for every 2 days once (reference value: 35%); format: functional; parameters: scale not given: the % may be the effect or the level left; conditions: time 14 day
[7] = Toxicity in BALB/c mouse xenografted with human HCT-116 cells assessed as change in heart weight at 1 to 10 mg/kg, ip every day for 14 days; format: organism-based; conditions: in vivo, 336 h, dose 1-10 mg/kg, time 14 day
[8] = Toxicity in BALB/c mouse xenografted with human HCT-116 cells assessed as change in liver weight at 1 to 10 mg/kg, ip every day for 14 days; format: organism-based; conditions: in vivo, 336 h, dose 1-10 mg/kg, time 14 day
[9] = Toxicity in BALB/c mouse xenografted with human HCT-116 cells assessed as change in lung weight at 1 to 10 mg/kg, ip every day for 14 days; format: organism-based; conditions: in vivo, 336 h, dose 1-10 mg/kg, time 14 day
[10] = Toxicity in BALB/c mouse xenografted with human HCT-116 cells assessed as change in spleen weight at 1 to 10 mg/kg, ip every day for 14 days radiated for every 2 days once; format: organism-based; conditions: in vivo, 336 h, dose 1-10 mg/kg, time 14 day
[11] = Toxicity in BALB/c mouse xenografted with human HCT-116 cells assessed as change in lung weight at 1 to 10 mg/kg, ip every day for 14 days radiated for every 2 days once; format: organism-based; conditions: in vivo, 336 h, dose 1-10 mg/kg, time 14 day
[12] = test system: Tyrosyl-DNA phosphodiesterase 1/Deoxyribonucleic acid; test: Stabilization of TDP1/DNA complex in human HCT-116 cells at 100 uM ionizing radiation with 4 GY by Cellular Thermal Shift Assay (CETSA); format: cell-based
HCT-116 [13] = test: Reduction of XRCC4 expression in wild type human HCT-116 cells assessed as reduction in protein level at 5 to 10 uM radiated with 4 GY ionizing radiation (IR) measured after 24 hrs by Western blot analysis; format: functional, cell-based; conditions: dose 5-10 µM
HCT-116 [14] = test: Effect on Ku70/80 expression in wild type human HCT-116 cells assessed as change in mRNA level at 5 to 10 uM radiated with 4 GY ionizing radiation (IR) measured after 24 hrs by qRT-PCR analysis; format: functional, cell-based; conditions: dose 5-10 µM
HCT-116 [15] = test: Effect on Lig4 expression in wild type human HCT-116 cells assessed as change in protein level at 5 to 10 uM radiated with 4 GY ionizing radiation (IR) measured after 24 hrs by Western blot analysis; format: functional, cell-based; conditions: dose 5-10 µM
HCT-116 [16] = test: Reduction in recruitment of XRCC4 at damage site of human HCT-116 cells at 5 uM radiated with 4 GY ionizing radiation (IR) measured after 3 hrs by fluorescence colocalization assay; format: functional, cell-based
HCT-116 [17] = test: Induction of ionizing radiation (IR) induced gamma-H2AX foci in human HCT-116 cells at 5 uM measured after 3 hrs by immunofluorescence assay; format: functional, cell-based
HCT-116 [18] = test: Induction of PIG3 transcription level in human HCT-116 cells measured after 24 hrs; format: functional, cell-based
HCT-116 [19] = test: Induction of PIG3 transcription level in human HCT-116 cells measured after 24 hrs treated with 4 GY ionizing radiation (IR); format: functional, cell-based; conditions: dose 5-10 µM
HCT-116 [20] = test: Induction of PIG3 expression in human HCT-116 cells xenografted BALB/c mouse tumor at 5 to 10 mg/kg, ip every day for 14 days by immunohistochemical analysis; format: functional, organism-based; conditions: dose 5-10 mg/kg, time 14.0 day
HCT-116 [21] = test: Effect on ROS generation in human HCT-116 cells assessed as increase in intracellular ROS level at 5 to 10 uM measured after 20 mins by ELIASA analysis; format: functional, cell-based; conditions: dose 5-10 µM
HCT-116 [22] = test: Induction of ROS generation in human HCT-116 cells assessed as fold increase in intracellular ROS level at 5 uM under 4GY ionizing radiation (IR) measured after 20 mins by ELIASA analysis; format: functional
HCT-116 [23] = test: Induction of ROS generation in human HCT-116 cells assessed as fold increase in intracellular ROS level at 10 uM under […] ionizing radiation (IR) measured after 20 mins by ELIASA analysis; format: functional
HCT-116 [24] = test: Induction of ROS generation in human HCT-116 cells assessed as intracellular ROS level at 10 uM under 4GY ionizing radiation (IR) measured after 20 mins by flow cytometry (reference value: 7.2%); format: functional
HCT-116 [25] = test: Induction of 4GY ionizing radiation (IR) induced ROS production in human HCT-116 cells assessed as mitochondrial dysfunction by measuring mitochondrial membrane potential loss at 10 uM measured after 24 hrs by flow cytometry; format: functional, cell-based
HCT-116 [26] = test: Induction of cell cycle arrest in human HCT-116 cells assessed as accumulation of cells at G0/G1 phase at 10 uM measured after 24 hrs by Propidium iodide (PI) staining based assay (reference value: 69.35%); format: functional
[27] = Induction of 4GY ionizing radiation (IR) induced cell cycle arrest in human HCT-116 cells assessed as accumulation of cells at S phase at 5 uM measured after 24 hrs by Propidium iodide (PI) staining based assay (reference value: 11.48%); format: functional
[28] = Induction of 4GY ionizing radiation (IR) induced cell cycle arrest in human HCT-116 cells assessed as accumulation of cells at S phase at 10 uM measured after 24 hrs by Propidium iodide (PI) staining based assay (reference value: 11.48%); format: functional
HCT-116 [29] = test: Induction of apoptosis in human HCT-116 cells assessed as late apoptotic cells at 5 uM measured after 24 hrs by FITC Annexin V/PI apoptosis detection assay (reference value: 0%); format: functional
HCT-116 [30] = test: Induction of apoptosis in human HCT-116 cells assessed as late apoptotic cells at 10 uM measured after 24 hrs by FITC Annexin V/PI apoptosis detection assay (reference value: 0%); format: functional
HCT-116 [31] = test: Induction of 4GY ionizing radiation (IR) induced apoptosis in human HCT-116 cells assessed as early apoptotic cells at 5 uM measured after 24 hrs by FITC Annexin V/PI apoptosis detection assay (reference value: 17.50%); format: functional

Structure (SMILES): COc1cc2c(=O)n(CCN(C)C)c3c4cc5c(cc4ccc3c2cc1OCCN1CCOCC1)OCO5
- Activity (HGC-27): inactive
- Activity (HeLa): inactive
- Activity [1]: Non-toxic
- AUC(0-inf) [2]: 291 ng·h/mL
- half-life [3]: 2.86 h
- MRT inf [4]: 7.06 h
- TGI (HCT-116 [5]): inactive
- Activity (HCT-116 [6]): 60%
- Activity [7]: Non-toxic
- Activity [8]: Non-toxic
- Activity [9]: Non-toxic
- Activity [10]: Non-toxic
- Activity [11]: Non-toxic
- Activity [12]: Active; Coincubation With Ionizing Radiation Showed Greater Complex Formation
- Activity (HCT-116 [13]): Active
- Activity (HCT-116 [14]): inactive
- Activity (HCT-116 [15]): inactive
- Activity (HCT-116 [16]): Active
- Activity (HCT-116 [17]): Active
- Activity (HCT-116 [18]): Dose-dependent-effect
- Activity (HCT-116 [19]): Dose-dependent-effect
- Activity (HCT-116 [20]): Active
- Activity (HCT-116 [21]): inactive
- fold change (FC) (HCT-116 [22]): 1.7
- fold change (FC) (HCT-116 [23]): 2.1
- Activity (HCT-116 [24]): 27.6%
- Activity (HCT-116 [25]): Active
- Activity (HCT-116 [26]): 63.63%
- Activity [27]: 11.88%
- Activity [28]: 12.88%
- Activity (HCT-116 [29]): 5.99%
- Activity (HCT-116 [30]): 13.67%
- Activity (HCT-116 [31]): 19.39%
